According to ChEMBL document CHEMBL1201862, “PubChem BioAssay data set” (2004):
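Growth conditions: 96-well plates. Treatment: test compound, 48 hours, 5 concentrations. Analysis: linear interpolation between bracketing concentrations; unreached endpoints set to highest concentration. GI50 is the concentration that inhibits growth by half.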 Activity calls are given as the source filed them. Rule as the data show it: active = GI50 up to about 1.1 µM and inactive = higher.

Columns and labels:
Test in all cases: NCI-60 cell line screen, 48 h
786-0 = system: 786-0
A549 = system: A549
ACHN = system: ACHN
CCRF-CEM = system: CCRF-CEM
COLO 205 = system: COLO 205
DMS-273 = system: DMS-273
HL-60 = system: HL-60
Malme-3M = system: Malme-3M
NCI-H23 = system: NCI-H23
NCI-H460 = system: NCI-H460
NCI-H522 = system: NCI-H522
OVCAR-4 = system: OVCAR-4
RPMI-8226 = system: RPMI-8226
SNB-75 = system: SNB-75
UACC-257 = system: UACC-257
M19-MEL = system: M19-MEL
SK-MEL-5 = system: SK-MEL-5
DU-145 = system: DU-145
MDA-MB-231 = system: MDA-MB-231
T47D = system: T47D

Measured: GI50

COC(=O)C1=CC2OC1(C)CCC2=O (centres undefined)
inactive: 786-0 > 100 µM | A549 > 100 µM | ACHN > 100 µM | CCRF-CEM 35.1 µM | COLO 205 > 100 µM | DMS-273 > 100 µM | HL-60 26.9 µM | Malme-3M 71.4 µM | NCI-H23 99.3 µM | NCI-H460 > 100 µM | NCI-H522 48.1 µM | OVCAR-4 > 100 µM | RPMI-8226 47.6 µM | SNB-75 > 100 µM | UACC-257 > 100 µM

Cc1ccc(N2C(=O)N(c3ccc(C)cc3)C3(SC=NN3C)C2=O)cc1 (centres undefined)
inactive: 786-0 > 100 µM | A549 50.5 µM | ACHN 65.6 µM | CCRF-CEM 40.6 µM | COLO 205 91 µM | HL-60 22.6 µM | M19-MEL 72.6 µM | Malme-3M 95.5 µM | NCI-H23 35.2 µM | NCI-H460 > 100 µM | NCI-H522 37.8 µM | OVCAR-4 95.5 µM | RPMI-8226 49.2 µM | SK-MEL-5 30 µM | SNB-75 > 100 µM | UACC-257 38.6 µM

O=C1Cc2ccccc2N1c1c(Cl)cccc1Cl
inactive: 786-0 92.5 µM | A549 50.2 µM | ACHN 70.1 µM | CCRF-CEM 32.9 µM | COLO 205 42.3 µM | HL-60 15.3 µM | M19-MEL 40.6 µM | Malme-3M 56.8 µM | NCI-H23 52 µM | NCI-H460 97.5 µM | NCI-H522 24.6 µM | OVCAR-4 48 µM | RPMI-8226 19.6 µM | SK-MEL-5 32.8 µM | SNB-75 27.7 µM | UACC-257 39.6 µM

CC(=O)Nc1ccc(C(=O)N2N=C(C)/C(=C/c3cccc(O)c3)C2=O)cc1
inactive: 786-0 > 100 µM | A549 > 100 µM | ACHN > 100 µM | CCRF-CEM > 100 µM | COLO 205 > 100 µM | DMS-273 > 100 µM | M19-MEL > 100 µM | Malme-3M > 100 µM | NCI-H23 > 100 µM | NCI-H460 > 100 µM | NCI-H522 > 100 µM | OVCAR-4 > 100 µM | SK-MEL-5 > 100 µM | SNB-75 > 100 µM | UACC-257 > 100 µM

COc1cc2c(cc1OC)C1=C(C=O)c3ccc(OC)c(OC)c3C(O)N1CC2 (centres undefined)
inactive: 786-0 35.2 µM | A549 22.7 µM | ACHN 28.2 µM | CCRF-CEM 33.7 µM | COLO 205 20.7 µM | DU-145 28.1 µM | HL-60 16.3 µM | MDA-MB-231 16.3 µM | Malme-3M 24.5 µM | NCI-H23 24.8 µM | NCI-H460 30.8 µM | NCI-H522 25.1 µM | OVCAR-4 40.3 µM | RPMI-8226 7.53 µM | SK-MEL-5 13.3 µM | SNB-75 4.75 µM | T47D 21.1 µM | UACC-257 18.5 µM

C#CCOCn1cnc2ncnc(Cl)c21
inactive: 786-0 > 100 µM | A549 > 100 µM | ACHN > 100 µM | CCRF-CEM > 100 µM | COLO 205 > 100 µM | DMS-273 > 100 µM | M19-MEL > 100 µM | Malme-3M > 100 µM | NCI-H23 > 100 µM | NCI-H460 > 100 µM | NCI-H522 > 100 µM | OVCAR-4 > 100 µM | RPMI-8226 > 100 µM | SK-MEL-5 > 100 µM | SNB-75 > 100 µM | UACC-257 > 100 µM

S=C1C=C(c2ccccc2)Sc2ccccc2N1
inactive: 786-0 > 100 µM | A549 > 100 µM | ACHN > 100 µM | CCRF-CEM 67.5 µM | COLO 205 > 100 µM | DU-145 > 100 µM | HL-60 53.8 µM | MDA-MB-231 > 100 µM | Malme-3M > 100 µM | NCI-H23 > 100 µM | NCI-H460 > 100 µM | NCI-H522 44.5 µM | OVCAR-4 > 100 µM | RPMI-8226 > 100 µM | SK-MEL-5 74.6 µM | SNB-75 61.7 µM | T47D > 100 µM | UACC-257 48.6 µM

CC(C)COC(=O)N1N=NC2C3CC(=O)C(O3)C21 (centres undefined)
inactive: 786-0 > 100 µM | A549 > 100 µM | ACHN > 100 µM | CCRF-CEM > 100 µM | COLO 205 > 100 µM | DMS-273 > 100 µM | M19-MEL > 100 µM | Malme-3M > 100 µM | NCI-H23 > 100 µM | NCI-H460 > 100 µM | NCI-H522 > 100 µM | OVCAR-4 > 100 µM | RPMI-8226 > 100 µM | SK-MEL-5 > 100 µM | SNB-75 > 100 µM | UACC-257 > 100 µM

NS(=O)(=O)c1ccc(NNc2c3ccccc3nc3c(C(=O)Nc4ccc(S(N)(=O)=O)cc4)cccc23)cc1
inactive: 786-0 15.6 µM | A549 > 100 µM | ACHN 27.7 µM | CCRF-CEM 14.5 µM | COLO 205 39.9 µM | DU-145 43.8 µM | HL-60 22.3 µM | MDA-MB-231 21.6 µM | Malme-3M 23.8 µM | NCI-H23 28.8 µM | NCI-H460 24.2 µM | NCI-H522 15.2 µM | OVCAR-4 19.6 µM | RPMI-8226 24.9 µM | SK-MEL-5 34.9 µM | SNB-75 14.5 µM | T47D 6.27 µM | UACC-257 98.4 µM

CN1C2CCC1CC(CCNC(c1ccccc1)c1ccccc1)C2 (centres undefined)
inactive: 786-0 17.5 µM | A549 71 µM | ACHN 80.5 µM | CCRF-CEM 36 µM | COLO 205 11.5 µM | DU-145 > 100 µM | HL-60 31 µM | MDA-MB-231 22.2 µM | Malme-3M 17.3 µM | NCI-H23 > 100 µM | NCI-H460 83.9 µM | NCI-H522 25.2 µM | OVCAR-4 > 100 µM | RPMI-8226 20.2 µM | SK-MEL-5 12.9 µM | SNB-75 47.2 µM | T47D 25.5 µM | UACC-257 16.4 µM

COC1(OC)C2(Cl)C(Cl)=C(Cl)C1(Cl)C1COCC12 (centres undefined)
inactive: 786-0 > 100 µM | A549 > 100 µM | ACHN > 100 µM | CCRF-CEM > 100 µM | COLO 205 > 100 µM | DU-145 13.4 µM | HL-60 > 61.4 µM | MDA-MB-231 > 100 µM | Malme-3M > 100 µM | NCI-H23 > 45 µM | NCI-H460 > 100 µM | NCI-H522 > 100 µM | OVCAR-4 > 100 µM | RPMI-8226 > 72.4 µM | SK-MEL-5 > 100 µM | SNB-75 > 100 µM | T47D > 100 µM | UACC-257 > 100 µM

CC(=O)OCc1nnn2c1C(OC(C)=O)CC2 (centres undefined)
inactive: 786-0 > 100 µM | A549 > 100 µM | ACHN > 100 µM | COLO 205 > 100 µM | DMS-273 > 100 µM | M19-MEL > 100 µM | Malme-3M > 100 µM | NCI-H23 > 100 µM | NCI-H460 > 100 µM | NCI-H522 > 100 µM | OVCAR-4 > 100 µM | RPMI-8226 > 100 µM | SK-MEL-5 > 100 µM | SNB-75 20.1 µM | UACC-257 > 100 µM
